What was measured:
Assay in all cases: relative viability (nuclei count vs DMSO), 5 days (fraction); higher = more cells survive
Entinostat + Decitabine = compound: Nc1ccccc1NC(=O)c1ccc(CNC(=O)OCc2cccnc2)cc1 [Entinostat] + Nc1ncn([C@H]2C[C@H](O)[C@@H](CO)O2)c(=O)n1 [Decitabine] (partner 2 µM)
Procedure, shortened: (§1)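 Five library-drug doses in √10 steps were combined with a fixed anchor-drug dose, or a single drug was given alone, by pin tool to lung cancer cell lines in 1536-well plates the day after seeding. Nuclei were stained and counted after 5 days. Relative viability is the nuclei count in treated wells over that in vehicle wells, taken as the median of duplicate plates.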

Entinostat + Alpelisib = compound: Nc1ccccc1NC(=O)c1ccc(CNC(=O)OCc2cccnc2)cc1 [Entinostat] + Cc1nc(NC(=O)N2CCC[C@H]2C(N)=O)sc1-c1ccnc(C(C)(C)C(F)(F)F)c1 [Alpelisib] (partner 2 µM)
Procedure, shortened: as §1

SGI-1776 + Dasatinib = compound: CN1CCC(CNc2ccc3ncc(-c4cccc(OC(F)(F)F)c4)n3n2)CC1 [SGI-1776] + Cc1nc(Nc2ncc(C(=O)Nc3c(C)cccc3Cl)s2)cc(N2CCN(CCO)CC2)n1 [Dasatinib] (partner 0.075 µM)
Procedure, shortened: as §1

Entinostat + Vorinostat = compound: Nc1ccccc1NC(=O)c1ccc(CNC(=O)OCc2cccnc2)cc1 [Entinostat] + O=C(CCCCCCC(=O)Nc1ccccc1)NO [Vorinostat] (partner 1 µM)
Procedure, shortened: as §1

Cell Line UMC-11 has a relative viability (Entinostat + Decitabine; first compound 0.02 µM) of 0.65, a relative viability (Entinostat + Decitabine; first compound 0.06325 µM) of 0.681 and a relative viability (Entinostat + Decitabine; first compound 0.2 µM) of 0.506. It also gave a relative viability (Entinostat + Decitabine; first compound 0.6325 µM) of 0.386, a relative viability (Entinostat + Decitabine; first compound 2 µM) of 0.725 and a relative viability (Entinostat + Alpelisib; first compound 0.02 µM) of 1.12. For the same cell line, the relative viability (Entinostat + Alpelisib; first compound 0.06325 µM) was 1.01, the relative viability (Entinostat + Alpelisib; first compound 0.2 µM) was 0.702 and the relative viability (Entinostat + Alpelisib; first compound 0.6325 µM) was 0.168. For the same cell line, the relative viability (Entinostat + Alpelisib; first compound 2 µM) was 0.116, the relative viability (SGI-1776 + Dasatinib; first compound 0.08 µM) was 0.449 and the relative viability (SGI-1776 + Dasatinib; first compound 0.8 µM) was 0.455. It also gave a relative viability (SGI-1776 + Dasatinib; first compound 2.53 µM) of 0.615, a relative viability (SGI-1776 + Dasatinib; first compound 8 µM) of 0.392 and a relative viability (Entinostat + Vorinostat; first compound 0.02 µM) of 0.43. It also gave a relative viability (Entinostat + Vorinostat; first compound 0.06325 µM) of 0.321, a relative viability (Entinostat + Vorinostat; first compound 0.2 µM) of 0.242 and a relative viability (Entinostat + Vorinostat; first compound 0.6325 µM) of 0.181. It also gave a relative viability (Entinostat + Vorinostat; first compound 2 µM) of 0.12.

— the supplement of paper PMC10307832
